Results: PubChem BioAssay (NCI)
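Grown in 96-well plates, cells were treated for 48 hours with each compound at five concentrations. Insufficient inhibition: endpoint recorded as highest concentration tested. TGI: concentration producing complete growth inhibition.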 Where a SMILES comes first, the peptide text is derived from it. The star is where a group is joined. Boc = CC(C)(C)OC(=O)*; OBn = c1ccc(CO*)cc1

system: M14 melanoma; test: inhibition of tumour cell growth, NCI panel, 48 h

Question: Which TGI does the source give for COc1cccc(OC/C(N=Cc2cccnc2)=N/NC(=O)c2ccncc2)c1 here?
Answer: > 100 µM

Question: Which TGI does the source give for Cc1csc2nc3c(cnn3C)c(=S)n12 here?
Answer: > 100 µM

Question: For C/C1=C/C(C)CC(C)OC(=O)C(C)NC(=O)C(Cc2ccc(O)c(I)c2)N(C)C(=O)CNC(=O)C(C)C1 (configuration not stated), which TGI is on record?
Answer: > 100 µM

Question: Which TGI does the source give for COC(=O)C(C)NP(=O)(N1CC1)N1CC1 (configuration not stated) here?
Answer: > 100 µM

Question: With Cc1ccc(-n2cnc3c(N)nc(N)nc32)cc1 as the compound, how does the TGI read?
Answer: > 100 µM

Question: For Ic1ncnc2c1ncn2C1CCCO1 (configuration not stated), which TGI is on record?
Answer: > 100 µM

Question: With COc1ccc(Nc2nnc(CCCCCCCCc3nnc(Nc4ccc(OC)cc4)o3)o2)cc1 as the compound, how does the TGI read?
Answer: > 100 µM

Question: How did the TGI turn out when O=c1c(C=Nc2ccccc2Cl)c(O)n(-c2ccccc2)c(=O)n1-c1ccccc1 was run?
Answer: > 100 µM

Question: For CCOC(=O)NNC(=O)C1CSC(c2ccccc2)N1C(C)=O (configuration not stated), which TGI is on record?
Answer: > 100 µM

Question: With O=[n+]1c2ccccc2n([O-])c2ccccc21 as the compound, how does the TGI read?
Answer: > 100 µM

Question: For CC(C)(C)O/C=C1/C(=O)OC2C[C@@H](O[Si](C)(C)C(C)(C)C)CC12 (some centres not stated), which TGI is on record?
Answer: > 100 µM

Question: How did the TGI turn out when CCCCCCCCCCCCCCCCCCNc1ccn(C2OC(COP(=O)(O)OC3CC(n4cc(F)c(=O)[nH]c4=O)OC3COP(=O)(O)OCC3OC(n4ccc(N)nc4=O)C(O)C3O)C(O)C2O)c(=O)n1 (configuration not stated) was run?
Answer: 23.4 µM

Question: How did the TGI turn out when CC(C)C(NC(=O)C(Cc1ccccc1)NC(=O)OC(C)(C)C)C(=O)NCC(=O)OCc1ccccc1 (stereo not drawn) (Boc-Phe-Val-Gly-OBn; configuration not given here) was run?
Answer: 36.5 µM

system: MCF7 breast; test: inhibition of tumour cell growth, NCI panel, 48 h

Question: How did the TGI turn out when Cc1oc2c(c1C)S(=O)(=O)C(C#N)C(c1ccccc1)N2 (configuration not stated) was run?
Answer: > 100 µM

Question: N#CC(C#N)N=Cc1ccncc1 was tested. Which TGI did it give?
Answer: > 100 µM

Question: With COc1ccc2c(c1)/C(=C\c1c(C)nc3n1CCS3)C(=O)N2 as the compound, how does the TGI read?
Answer: > 100 µM

Question: How did the TGI turn out when CN(C)C=C1C(=O)c2c(Br)sc(Br)c2C1=O was run?
Answer: > 100 µM

Question: CCOC(=O)CCC(NC(=O)c1ccc(CNc2nc3ccccc3nc2C(=O)OCC)cc1)C(=O)OCC (configuration not stated) was tested. Which TGI did it give?
Answer: > 100 µM

Question: For COC(=O)Nc1nc2ccc(S(=O)(=O)NC(CC(C)C)C(=O)OC)cc2[nH]1 (configuration not stated), which TGI is on record?
Answer: > 100 µM

Question: With Cc1cc([C@H](C#N)c2nc3ccccc3[nH]2)nc(Cl)n1 as the compound, how does the TGI read?
Answer: > 100 µM

Question: With OC(CCN1CCCCC1)(c1ccccc1)c1ccccc1 as the compound, how does the TGI read?
Answer: > 100 µM

Question: O=C1c2ccccc2C(O)(C(=O)O)C1(O)CC=C(Cl)Cl (configuration not stated) was tested. Which TGI did it give?
Answer: > 125 µM

Question: Which TGI does the source give for CN(C)C=Nc1cccc2nsnc12 here?
Answer: > 100 µM

Question: For CC(=O)O[C@@H]1CC[C@@]2(C)C(CC[C@H]3[C@@H]4CC[C@H]([C@H](C)CCc5nc6ccc(C)cc6[nH]5)[C@@]4(C)CC[C@@H]32)C1 (some centres not stated), which TGI is on record?
Answer: > 100 µM

Question: How did the TGI turn out when COc1cccc(OC/C(N=Cc2cccnc2)=N/NC(=O)c2ccncc2)c1 was run?
Answer: > 100 µM

Question: Cc1csc2nc3c(cnn3C)c(=S)n12 was tested. Which TGI did it give?
Answer: > 100 µM

Question: With C/C1=C/C(C)CC(C)OC(=O)C(C)NC(=O)C(Cc2ccc(O)c(I)c2)N(C)C(=O)CNC(=O)C(C)C1 (configuration not stated) as the compound, how does the TGI read?
Answer: > 100 µM

Question: Which TGI does the source give for Cc1ccc(-n2cnc3c(N)nc(N)nc32)cc1 here?
Answer: > 100 µM

Question: With COc1ccc(Nc2nnc(CCCCCCCCc3nnc(Nc4ccc(OC)cc4)o3)o2)cc1 as the compound, how does the TGI read?
Answer: > 100 µM

Question: How did the TGI turn out when O=c1c(C=Nc2ccccc2Cl)c(O)n(-c2ccccc2)c(=O)n1-c1ccccc1 was run?
Answer: > 100 µM

Question: With CCOC(=O)NNC(=O)C1CSC(c2ccccc2)N1C(C)=O (configuration not stated) as the compound, how does the TGI read?
Answer: > 100 µM

Question: O=[n+]1c2ccccc2n([O-])c2ccccc21 was tested. Which TGI did it give?
Answer: > 100 µM

Question: Which TGI does the source give for CC(C)(C)O/C=C1/C(=O)OC2C[C@@H](O[Si](C)(C)C(C)(C)C)CC12 (some centres not stated) here?
Answer: > 100 µM

Question: How did the TGI turn out when CCCCCCCCCCCCCCCCCCNc1ccn(C2OC(COP(=O)(O)OC3CC(n4cc(F)c(=O)[nH]c4=O)OC3COP(=O)(O)OCC3OC(n4ccc(N)nc4=O)C(O)C3O)C(O)C2O)c(=O)n1 (configuration not stated) was run?
Answer: > 100 µM

system: MDA-N; test: inhibition of tumour cell growth, NCI panel, 48 h

Question: With Cc1oc2c(c1C)S(=O)(=O)C(C#N)C(c1ccccc1)N2 (configuration not stated) as the compound, how does the TGI read?
Answer: 81.5 µM

Question: For CC(=O)Oc1cc2c(n(C)c1=O)-c1ccccc1C2, which TGI is on record?
Answer: > 100 µM

Question: Nc1nc(N)c2cc(Sc3ccc4nc(N)nc(N)c4c3)ccc2n1 was tested. Which TGI did it give?
Answer: > 100 µM

Question: N#CC(C#N)N=Cc1ccncc1 was tested. Which TGI did it give?
Answer: > 100 µM

Question: COc1ccc2c(c1)/C(=C\c1c(C)nc3n1CCS3)C(=O)N2 was tested. Which TGI did it give?
Answer: 13.6 µM

Question: Which TGI does the source give for CN(C)C=C1C(=O)c2c(Br)sc(Br)c2C1=O here?
Answer: 42.1 µM

Question: Which TGI does the source give for O=c1[nH]n(Cc2ccccc2Cl)c2ccc([N+](=O)[O-])cc12 here?
Answer: > 100 µM

Question: How did the TGI turn out when COc1cc2c[n+](C)c3c4cc5c(cc4ccc3c2cc1OC)OCO5 was run?
Answer: > 100 µM

Question: How did the TGI turn out when CCOC(=O)CCC(NC(=O)c1ccc(CNc2nc3ccccc3nc2C(=O)OCC)cc1)C(=O)OCC (configuration not stated) was run?
Answer: > 100 µM

Question: With COC(=O)Nc1nc2ccc(S(=O)(=O)NC(CC(C)C)C(=O)OC)cc2[nH]1 (configuration not stated) as the compound, how does the TGI read?
Answer: 2.18 µM

Question: How did the TGI turn out when OC(CCN1CCCCC1)(c1ccccc1)c1ccccc1 was run?
Answer: > 100 µM

Question: CN(C)C=Nc1cccc2nsnc12 was tested. Which TGI did it give?
Answer: > 100 µM

Question: For COc1cccc(OC/C(N=Cc2cccnc2)=N/NC(=O)c2ccncc2)c1, which TGI is on record?
Answer: > 100 µM

Question: Cc1csc2nc3c(cnn3C)c(=S)n12 was tested. Which TGI did it give?
Answer: > 100 µM

Question: How did the TGI turn out when C/C1=C/C(C)CC(C)OC(=O)C(C)NC(=O)C(Cc2ccc(O)c(I)c2)N(C)C(=O)CNC(=O)C(C)C1 (configuration not stated) was run?
Answer: > 100 µM

Question: Cc1ccc(-n2cnc3c(N)nc(N)nc32)cc1 was tested. Which TGI did it give?
Answer: > 100 µM

Question: With COc1ccc(Nc2nnc(CCCCCCCCc3nnc(Nc4ccc(OC)cc4)o3)o2)cc1 as the compound, how does the TGI read?
Answer: > 100 µM

Question: O=c1c(C=Nc2ccccc2Cl)c(O)n(-c2ccccc2)c(=O)n1-c1ccccc1 was tested. Which TGI did it give?
Answer: > 100 µM

Question: Which TGI does the source give for CC(C)(C)O/C=C1/C(=O)OC2C[C@@H](O[Si](C)(C)C(C)(C)C)CC12 (some centres not stated) here?
Answer: > 100 µM

Question: Which TGI does the source give for CC(C)C(NC(=O)C(Cc1ccccc1)NC(=O)OC(C)(C)C)C(=O)NCC(=O)OCc1ccccc1 (stereo not drawn) (Boc-Phe-Val-Gly-OBn; configuration not given here) here?
Answer: 33.5 µM

system: NCI-H522 lung; test: inhibition of tumour cell growth, NCI panel, 48 h

Question: For Cc1oc2c(c1C)S(=O)(=O)C(C#N)C(c1ccccc1)N2 (configuration not stated), which TGI is on record?
Answer: 40.2 µM

Question: For CC(=O)Oc1cc2c(n(C)c1=O)-c1ccccc1C2, which TGI is on record?
Answer: 30.7 µM

Question: For CN(C)C=C1C(=O)c2c(Br)sc(Br)c2C1=O, which TGI is on record?
Answer: 31.5 µM
